Where two headings read alike, the source gives them in different places.
What was measured:
[1] = biological target: T1, HSV-1 helicase-primase (Human herpesvirus 1, UniProt P10189+P10236); test: HSV-1 DNA-dependent ATPase assay (inhibition of HSV-1 helicase-primase); format: biochemical
T1 construct: made in house; host or cells: Sf21 insect cells triply infected with recombinant baculoviruses (UL5, UL8, UL52)
Procedure, shortened: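 ATP hydrolysis was measured as inorganic phosphate (malachite green/molybdate, 650 nm) after 20 min at 34°. Reaction: 3 μg/mL purified Sf21-expressed UL5/UL8/UL52 helicase-primase, 25 μM single-stranded M13 DNA hybridized to 68-mer, 4 mM ATP, pH 7.5 HEPES buffer, 3.3% DMSO. Net absorbance change with and without inhibitor gave DNA-dependent ATPase activity.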

[2] = tested on: HSV-1 strain F or KOS; test: Inhibition of herpes simplex virus (HSV-1) replication in cell culture (BHK-21 cells, glycoprotein C ELISA); format: cell-based
Procedure, shortened: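 Replication readout: ELISA for HSV-1 late glycoprotein C (mAb C11, peroxidase-OPD, 450 nm) on glutaraldehyde-fixed cells. Monolayers (~50,000 cells/well) were infected with strain F or KOS (MOI 0.05 PFU/cell), then incubated 24 h at 37° with compound in 2% FBS α-MEM. EC50 derived from % inhibition.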

[3] = tested on: HCMV (strain AD169); test: Inhibition of HCMV replication, plaque reduction assay (PRA, Hs-68 cells); format: cell-based, Human Cytomegalovirus (HCMV); conditions: read-out: PRA CMV EC50
Procedure, shortened: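 Hs-68 monolayers (80–90% confluent) were infected with ~50 PFU HCMV AD169 for 2 h at 37°, then given compound in DMEM/5% inactivated FBS, refreshed after 4 days and kept 4 more days. Plaques were counted after formaldehyde fixation and crystal violet staining. EC50 derives from percent plaque reduction versus untreated wells.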

[4] = Human alphaherpesvirus 1, BHK-21, Group 1 Table 1 entries
[5] = Human betaherpesvirus 5, AD169, Hs68, Group 1 Table 1 entries
[6] = Group 1 Table 2 entries (Q = CH2)
[7] = Human alphaherpesvirus 1, BHK-21, Group 1 Table 2 entries
[8] = Human betaherpesvirus 5, AD169, Hs68, Group 1 Table 2 entries
[9] = Human alphaherpesvirus 1, BHK-21, Group 1 Table 3 entries
[10] = Human betaherpesvirus 5, AD169, Hs68, Group 1 Table 3 entries

T1 sequence (P10192 whole entry): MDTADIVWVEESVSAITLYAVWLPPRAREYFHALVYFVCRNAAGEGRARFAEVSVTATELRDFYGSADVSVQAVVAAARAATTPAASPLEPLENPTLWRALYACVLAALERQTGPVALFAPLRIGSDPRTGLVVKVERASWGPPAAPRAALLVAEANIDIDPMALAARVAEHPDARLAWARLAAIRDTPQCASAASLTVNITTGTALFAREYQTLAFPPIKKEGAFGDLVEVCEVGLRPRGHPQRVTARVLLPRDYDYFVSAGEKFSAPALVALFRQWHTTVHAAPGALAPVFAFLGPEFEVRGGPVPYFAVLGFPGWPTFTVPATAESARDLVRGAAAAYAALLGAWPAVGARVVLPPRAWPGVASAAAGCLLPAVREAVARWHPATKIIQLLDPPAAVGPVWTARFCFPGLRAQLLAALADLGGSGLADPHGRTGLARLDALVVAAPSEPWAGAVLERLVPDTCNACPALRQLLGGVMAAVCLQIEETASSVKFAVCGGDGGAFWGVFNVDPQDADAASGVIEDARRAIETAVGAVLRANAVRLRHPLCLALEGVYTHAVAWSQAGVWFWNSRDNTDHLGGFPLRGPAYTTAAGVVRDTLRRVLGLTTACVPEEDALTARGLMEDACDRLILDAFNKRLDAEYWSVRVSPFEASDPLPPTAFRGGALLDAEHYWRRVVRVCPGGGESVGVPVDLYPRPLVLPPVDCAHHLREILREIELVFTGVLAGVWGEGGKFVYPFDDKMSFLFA
T1 sequence (P10236 whole entry): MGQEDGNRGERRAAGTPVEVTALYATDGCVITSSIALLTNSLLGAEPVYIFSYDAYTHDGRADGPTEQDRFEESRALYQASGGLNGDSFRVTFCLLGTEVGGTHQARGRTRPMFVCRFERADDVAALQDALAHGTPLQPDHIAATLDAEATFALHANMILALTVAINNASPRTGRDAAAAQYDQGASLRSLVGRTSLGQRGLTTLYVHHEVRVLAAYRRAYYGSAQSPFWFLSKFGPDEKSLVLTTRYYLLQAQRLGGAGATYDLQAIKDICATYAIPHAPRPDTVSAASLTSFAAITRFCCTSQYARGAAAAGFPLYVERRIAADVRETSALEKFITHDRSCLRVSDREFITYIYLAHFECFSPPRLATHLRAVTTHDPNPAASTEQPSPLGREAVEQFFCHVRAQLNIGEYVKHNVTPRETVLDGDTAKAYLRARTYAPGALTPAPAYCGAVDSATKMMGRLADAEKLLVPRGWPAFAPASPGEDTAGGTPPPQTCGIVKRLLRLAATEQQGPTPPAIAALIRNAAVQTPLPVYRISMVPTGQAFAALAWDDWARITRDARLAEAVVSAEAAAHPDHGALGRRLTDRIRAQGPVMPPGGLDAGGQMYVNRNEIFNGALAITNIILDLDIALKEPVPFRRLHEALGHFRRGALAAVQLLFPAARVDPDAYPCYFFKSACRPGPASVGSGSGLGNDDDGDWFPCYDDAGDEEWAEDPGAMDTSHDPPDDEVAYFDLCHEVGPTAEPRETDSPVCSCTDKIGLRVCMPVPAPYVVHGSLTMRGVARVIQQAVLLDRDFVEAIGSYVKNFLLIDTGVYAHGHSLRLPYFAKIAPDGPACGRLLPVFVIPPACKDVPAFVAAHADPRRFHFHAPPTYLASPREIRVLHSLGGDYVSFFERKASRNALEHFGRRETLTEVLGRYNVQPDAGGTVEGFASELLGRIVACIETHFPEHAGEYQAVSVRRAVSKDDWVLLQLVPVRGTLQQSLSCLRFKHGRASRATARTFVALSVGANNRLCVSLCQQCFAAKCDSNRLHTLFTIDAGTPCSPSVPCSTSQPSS
T1 sequence (P10189 whole entry): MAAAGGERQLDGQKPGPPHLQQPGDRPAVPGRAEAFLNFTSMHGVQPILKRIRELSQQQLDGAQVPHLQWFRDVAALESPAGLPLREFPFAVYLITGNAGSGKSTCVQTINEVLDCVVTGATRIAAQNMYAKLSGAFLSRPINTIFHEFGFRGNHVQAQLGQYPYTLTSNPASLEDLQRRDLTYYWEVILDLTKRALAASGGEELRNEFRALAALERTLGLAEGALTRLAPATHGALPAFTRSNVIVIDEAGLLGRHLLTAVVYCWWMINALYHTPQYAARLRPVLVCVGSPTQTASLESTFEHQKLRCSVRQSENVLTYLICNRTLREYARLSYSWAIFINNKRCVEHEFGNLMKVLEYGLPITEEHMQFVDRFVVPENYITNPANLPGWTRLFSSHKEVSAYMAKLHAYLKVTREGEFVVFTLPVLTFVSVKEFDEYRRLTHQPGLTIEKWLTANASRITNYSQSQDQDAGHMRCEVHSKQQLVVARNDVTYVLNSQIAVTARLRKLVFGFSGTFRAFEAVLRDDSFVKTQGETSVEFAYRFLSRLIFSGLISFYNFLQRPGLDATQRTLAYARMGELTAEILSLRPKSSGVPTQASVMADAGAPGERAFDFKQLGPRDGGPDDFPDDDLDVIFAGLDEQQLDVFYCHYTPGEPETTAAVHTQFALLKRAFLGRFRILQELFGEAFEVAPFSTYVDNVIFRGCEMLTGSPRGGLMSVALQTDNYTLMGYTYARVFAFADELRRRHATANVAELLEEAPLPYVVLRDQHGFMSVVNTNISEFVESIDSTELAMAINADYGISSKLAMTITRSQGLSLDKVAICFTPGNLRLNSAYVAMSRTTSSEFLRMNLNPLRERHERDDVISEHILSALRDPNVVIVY

Compound	IC50 ([1]; Group 1 Table 1 entries)	EC50 [2, 4]	EC50 [3, 5]	other results
CC(C)(C)OC(=O)N[C@H](Cc1ccccc1)C(=O)Nc1ccc(-c2csc(N)n2)cc1 [Example 4]	–	–	–	IC50 ([1]; Group 1 Table 5 entries): 1.5 µM; EC50 ([2]; Human alphaherpesvirus 1, BHK-21, Group 1 Table 5 entries): 0.57 µM; EC50 ([3]; Human betaherpesvirus 5, AD169, Hs68, Group 1 Table 5 entries): 22 µM
Nc1nc(-c2ccc(NC(=O)CNCCCc3ccccc3)cc2)cs1 [Example 3]	7.6 µM	18 µM	> 14 µM	–
CC(C)(C)C(=O)N(CC(=O)Nc1ccc(-c2csc(N)n2)cc1)Cc1ccccc1 [Example 41]	0.8 µM	0.036 µM	34 µM	–
Nc1nc(-c2ccc(NC(=O)CN(Cc3ccccc3)C(=O)c3ccccc3)cc2)cs1 [Example 23]	0.072 µM	0.007 µM	36 µM	–
Nc1nc(-c2ccc(NC(=O)CCNCc3ccccc3)cc2)cs1 [Example 1]	–	–	–	IC50 [1, 6]: 21 µM; EC50 [2, 7]: 6 µM; EC50 [3, 8]: 30 µM
CC(C)C(=O)N(CC(=O)Nc1ccc(-c2csc(N)n2)cc1)Cc1ccccc1 [Example 43]	1.6 µM	0.13 µM	13 µM	–
CCCC(CCC)NCCC(=O)Nc1ccc(-c2csc(N)n2)cc1 [Example 23]	–	–	–	IC50 [1, 6]: 45 µM; EC50 [2, 7]: 6 µM; EC50 [3, 8]: > 9 µM
CN(C(=O)CN(Cc1ccccc1)C(=O)C1CCCCC1)c1ccc(-c2csc(N)n2)cc1 [Example 1]	–	–	–	IC50 ([1]; Group 1 Table 3 entries): 0.053 µM; EC50 [2, 9]: 0.016 µM; EC50 [3, 10]: 24 µM
Nc1nc(-c2ccc(NC(=O)CN(Cc3ccccc3)C(=O)c3ccc(F)cc3)cc2)cs1 [Example 24]	0.048 µM	0.002 µM	15 µM	–
Nc1nc(-c2ccc(NC(=O)CN(CC3CCCCC3)C(=O)c3ccccc3)cc2)cs1 [Example 60]	1.5 µM	0.54 µM	–	EC50 ([3]; Group 1 Table 1 entries): 15 µM
Nc1nc(-c2ccc(NC(=O)CN(Cc3ccc(F)cc3)C(=O)c3ccncc3)cc2)cs1 [Example 84]	0.36 µM	0.14 µM	37 µM	–
C[C@H](NCC(=O)Nc1ccc(-c2csc(N)n2)cc1)c1ccccc1 [Example 10]	6.9 µM	2.2 µM	> 30 µM	–
CC(=O)N(CC(=O)Nc1ccc(-c2csc(N)n2)cc1)Cc1ccccc1 [Example 44]	3.3 µM	0.75 µM	37 µM	–
Nc1nc(-c2ccc(NC(=O)CNCc3ccccc3)cc2)cs1 [Example 1]	6.4 µM	2.7 µM	> 60 µM	–
Nc1nc(-c2ccc(NC(=O)CN(Cc3ccccc3)Cc3ccccc3)cc2)cs1 [Example 16]	0.55 µM	0.45 µM	13 µM	–
C[C@@H](c1ccccc1)N(CC(=O)Nc1ccc(-c2csc(N)n2)cc1)C(=O)C1CCCCC1 [Example 53]	0.038 µM	0.003 µM	12 µM	–
Nc1nc(-c2ccc(NC(=O)CN(Cc3ccccc3)C(=O)c3cc[n+]([O-])cc3)cc2)cs1 [Example 30]	0.44 µM	0.43 µM	> 88 µM	–
Nc1nc(-c2ccc(NC(=O)CCNCc3cccc(F)c3)cc2)cs1 [Example 4]	–	–	–	IC50 [1, 6]: 5.2 µM; EC50 [2, 7]: 2.2 µM; EC50 [3, 8]: > 3.7 µM
CCC(CC)C(=O)N(CC(=O)Nc1ccc(-c2csc(N)n2)cc1)Cc1ccccc1 [Example 104]	0.078 µM	0.016 µM	> 18 µM	–
Nc1nc(-c2ccc(NC(=O)CN(Cc3cccs3)C(=O)C3CCCCC3)cc2)cs1 [Example 51]	0.063 µM	0.002 µM	11 µM	–
CC(C)(C)NC(=S)N(CC(=O)Nc1ccc(-c2csc(N)n2)cc1)Cc1ccccc1 [Example 93]	0.16 µM	0.12 µM	> 24 µM	–
Nc1nc(-c2ccc(NC(=O)CCN(C(=O)c3cccnc3)C3Cc4ccccc4C3)cc2)cs1 [Example 12]	–	–	–	IC50 [1, 6]: 10 µM; EC50 [2, 7]: 7.6 µM; EC50 [3, 8]: 8 µM
Nc1nc(-c2ccc(NC(=O)CCN(Cc3ccccc3)C(=O)c3ccccc3)cc2)cs1 [Example 3]	–	–	–	IC50 [1, 6]: 2.1 µM; EC50 [2, 7]: 2.2 µM; EC50 [3, 8]: 9.2 µM
Nc1nc(-c2ccc(NC(=O)CN(Cc3ccncc3)C(=O)C3CCCCC3)cc2)cs1 [Example 49, N-{2-{{4-(2-amino-4-thiazolyl)phenyl}amino}-2-oxoethyl}-N-(4-pyridinylmethyl)cyclohexanecarboxamide]	0.037 µM	0.012 µM	23 µM	–
Nc1nc(-c2ccc(NC(=O)CN(CC3CCCCC3)C(=O)Cc3ccccc3)cc2)cs1 [Example 77]	0.37 µM	0.19 µM	7.5 µM	–
C[C@@H](NCC(=O)Nc1ccc(-c2csc(N)n2)cc1)c1ccccc1 [Example 11]	3.7 µM	1.3 µM	19 µM	–
Nc1nc(-c2ccc(NC(=O)CCNCC3CCCCC3)cc2)cs1 [Example 22]	–	–	–	IC50 [1, 6]: 29 µM; EC50 [2, 7]: 6 µM; EC50 [3, 8]: > 6 µM
CC(=O)Nc1nc(-c2ccc(NC(=O)CN(Cc3ccccc3)C(C)=O)cc2)cs1 [Example 18]	–	–	–	IC50 ([1]; Group 1 Table 3 entries): > 100 µM; EC50 [2, 9]: > 30 µM; EC50 [3, 10]: > 81 µM
Nc1nc(-c2ccc(NC(=O)CN(Cc3cccnc3)C(=O)C3CCCCC3)cc2)cs1 [Example 48]	0.14 µM	0.04 µM	49 µM	–
Nc1nc(-c2ccc(NC(=O)CN(CC3CCCCC3)C(=O)C3CCNCC3)cc2)cs1 [Example 62]	–	5.5 µM	38 µM	inhibition at 50 µM ([1]; Group 1 Table 1 entries, at 50 μM, read-out: inhibition at 50 μM (printed in the HSV-1 IC50 column)): 29%
